Measured values taken from ChEMBL document CHEMBL1145818, “Effect of detergent on "promiscuous" inhibitors” (J Med Chem, 2003).

Tests used:
[1] = target: Chymotrypsinogen A (Bos taurus) (UniProt P00766); test: Concentration required for the inhibition of Chymotrypsinogen
[2] = target: T1, Dihydrofolate reductase (Homo sapiens) (UniProt P00374); test: Concentration required for the inhibition of dihydrofolate reductase
T1 sequence (whole entry): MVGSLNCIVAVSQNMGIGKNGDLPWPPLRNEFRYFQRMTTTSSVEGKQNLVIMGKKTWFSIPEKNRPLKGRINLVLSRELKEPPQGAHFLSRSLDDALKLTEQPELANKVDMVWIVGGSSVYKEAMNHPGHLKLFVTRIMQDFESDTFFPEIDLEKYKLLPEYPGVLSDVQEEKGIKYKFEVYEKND

- Concentration [1]: 40 µM
- Concentration [2]: 0.4 µM
SMILES: Nc1c(/N=N/c2ccc(-c3ccc(/N=N/c4cc(S(=O)(=O)O)c5ccccc5c4N)cc3)cc2)cc(S(=O)(=O)O)c2ccccc12
